US20090047742A1 (priority 2005, published 2009)

Legend:
T-Rex-293 cells [1] = assay: trypan blue exclusion viability; format: cell-based, human; details: T-Rex-293 (mazF/pcDNA3), MazF expression induced
Procedure: The viability of T-Rex-293 cells was determined by trypan blue exclusion as previously described (Degenhardt, K., et al., J. Biol. Chem. 277: 14127-14134 (2002)). T-Rex-293 (mazF/pcDNA3) and T-Rex-293 (mazF/mazE) cells were cultured for 24 hr before tetracycline treatment and then incubated for 0, 24, 48 and 72 hr at 37° C. in the presence or absence of 10 μg/ml tetracycline. After treatment, cells were collected by centrifugation of the supernatant plus adherent cells, which were harvested by trypsinization. Cells were resuspended in 500 μl of fresh medium containing 0.1% trypan blue solution (Sigma, St. Louis, Mo.) and then counted on a hemocytometer to assess the number of dead blue cells and the total number of cells counted. As a control for apoptotic cell death, T-Rex-293 (mazF/mazE) cells were treated with 1 μM staurosporine (Sigma, St. Louis, Mo.) for same time periods concurrently with tetracycline treatment.

[2] = system: human GAPDH and β-actin mRNA; assay: Northern blot analysis of cellular mRNA in T-Rex-293 cells; format: cell-based; details: T-Rex-293 (mazF/pcDNA3) cells
Procedure: Northern blot analysis and real-time PCR (RT-PCR) was preformed as previously described (Zhang, Y., et al., Mol. Cell 12: 913-923 (2003); Cuconati, A., et al., Genes Dev. 17: 2922-2932 (2003)). Total RNA from tetracycline-treated (0, 24, 48 and 72 hr) or untreated (0, 24, 48 and 72 hr) T-Rex-293 (mazF/pcDNA3) and T-Rex-293 (mazF/mazE) cells for were isolated through the use of Trizol Reagent (Gibco, Carlsbad, Calif.). For Northern blot analysis, 10 μg of total RNA from each condition was subjected to formaldehyde-agarose gel electrophoresis followed by transfer onto GeneScreen Plus membrane (NEN Life Science Products, Boston, Mass.). The blot was hybridized with ^32P-labeled human GAPDH or β-actin cDNA. One hundred ng of total RNA was subjected to real time RT-PCR with the Taqman EZ-RT PCR kit (PE Applied Biosystems, Lincoln Centre Drive Foster City, Calif.) using recommended conditions provided by the vendor. Primers to analyze the level of human GAPDH mRNA were obtained from Applied Biosystems, and a probe for GAPDH was supplied with 5′ linkage to the reporter dye 2, 7-dimethoxy-4, 5-dichloro-6-carboxy-fluoroecein (JOE), and 3′ linkage to the quencher 6-carboxy-tetramethylrhodamine (TAMURA). β-actin primer sequences were 5′-[…]-3′ and 5′-[…]-3′. β-actin probe sequence was FAM-5′-[…] TTCC-3′-TAMURA. Reactions were carried out in triplicate and the relative amount of human GAPDH and β-actin mRNA was calculated from the difference in fluorescence signal in the 24-, 48- and 72-hr samples compared with the corresponding 0 hr sample.
To assess cellular mRNA levels, total RNA was isolated from whole cells of Tet-treated or -untreated T-Rex-293 cells and subjected to Northern blot analysis using human GAPDH and β-actin cDNA probes. […] Labeled single-stranded DNA fragments complementary to the specific mRNA being sought then are hybridized to the bound mRNA and the label detected by suitable means. […]

[3] = system: human GAPDH and β-actin mRNA; assay: real-time RT-PCR quantification of mRNA levels in T-Rex-293 cells; format: cell-based; details: MazF induction for 72 hours, T-Rex-293 cells
Procedure: Northern blot analysis and real-time PCR (RT-PCR) was preformed as previously described (Zhang, Y., et al., Mol. Cell 12: 913-923 (2003); Cuconati, A., et al., Genes Dev. 17: 2922-2932 (2003)). Total RNA from tetracycline-treated (0, 24, 48 and 72 hr) or untreated (0, 24, 48 and 72 hr) T-Rex-293 (mazF/pcDNA3) and T-Rex-293 (mazF/mazE) cells for were isolated through the use of Trizol Reagent (Gibco, Carlsbad, Calif.). For Northern blot analysis, 10 μg of total RNA from each condition was subjected to formaldehyde-agarose gel electrophoresis followed by transfer onto GeneScreen Plus membrane (NEN Life Science Products, Boston, Mass.). The blot was hybridized with ^32P-labeled human GAPDH or β-actin cDNA. One hundred ng of total RNA was subjected to real time RT-PCR with the Taqman EZ-RT PCR kit (PE Applied Biosystems, Lincoln Centre Drive Foster City, Calif.) using recommended conditions provided by the vendor. […] Reactions were carried out in triplicate and the relative amount of human GAPDH and β-actin mRNA was calculated from the difference in fluorescence signal in the 24-, 48- and 72-hr samples compared with the corresponding 0 hr sample.

[4] = system: activated caspase-3 in iBMK cells; assay: immunofluorescence of activated caspase-3 in iBMK cells; format: cell-based, mouse
Procedure: W2, D3, X2 and K1 cells co-transfected by electroporation with a combination of plasmids pcDNA6/His/lacZ with pcDNA4/TO/mazF or pcDNA3 were grown on glass coverslips for 24 hr and fixed in 100% methanol for 10 min at −20° C. After blocking in 1% BSA-PBS for 1 hr at 37° C., cells on coverslips were incubated with anti-active caspase-3 rabbit polyclonal antibody and anti-Xpress mouse monoclonal antibody (Invitrogen, Carlsbad, Calif.) for 1 hr at 37° C. followed by incubation with rhodamine-conjugated anti-rabbit IgG and FITC-conjugated anti-mouse IgG antibody for 1 hr at 37° C. Staining was visualized by a Nikon FXA microscope equipped with epifluorescence optics (Nikon Inc., Garden City, N.Y.). The percentage of cells positive for active caspase-3 was determined by scoring 50-100 cells on each coverslip.

T-Rex-293 cells [5] = assay: phase contrast morphology / cytopathic effect; format: cell-based, human; details: T-Rex-293, 72 hours post-induction of MazF

MazF: E. coli toxin; sequence specific endoribonuclease (mRNA interferase) cleaving single-stranded RNAs at ACA sequences; expressed from plasmid pcDNA4/TO/mazF
cell viability (trypan blue exclusion) (T-Rex-293 cells [1]): dropped strikingly | levels of both GAPDH and β-actin mRNAs (Northern blot) ([2]; 48 hours post-induction of MazF): almost completely lost | levels of both GAPDH and β-actin mRNAs (Northern blot) ([2]; after 24 hours of MazF induction by Tet): dramatically decreased | decrease of both GAPDH and β-actin mRNAs (real-time RT-PCR) [3]: > 90% | cells with activated caspase-3 ([4]; D3 and K1 cells transiently expressing MazF): < 0.1% | active-caspase-3 positive cells ([4]; W2 cells transiently expressing MazF): 58.1% | active-caspase-3 positive cells ([4]; X2 cells transiently expressing MazF): 47.2% | number of attached cells (T-Rex-293 cells [5]): dramatically decreased
